From ChEMBL document CHEMBL5247597, “Enantioselective semisynthesis of novel cephalotaxine esters with potent antineoplastic activities against leukemia” (Eur J Med Chem, 2022)
Calls of active or inactive are those of the source. The calls are words filed in the database; no cut-off is given here.

Experiments:
K562 [1] = assay: Antiproliferative activity against human K562 cells assessed as inhibition of cell growth measured after 72 hrs by CCK8 assay; assay type: functional, cell-based; conditions: K562, 72 h
HL-60 = assay: Antiproliferative activity against human HL-60 cells assessed as inhibition of cell growth measured after 72 hrs by CCK8 assay; assay type: functional, cell-based; conditions: HL-60, 72 h
U-937 = assay: Antiproliferative activity against human U-937 cells assessed as inhibition of cell growth measured after 72 hrs by CCK8 assay; assay type: functional, cell-based; conditions: U-937, 72 h
BaF3 = assay: Antiproliferative activity against mouse BaF3 cells expressing Bcr/Abl-T315I mutant assessed as inhibition of cell growth measured after 72 hrs by CCK8 assay; assay type: functional, cell-based; conditions: BaF3, 72 h
MOLT-4 = assay: Antiproliferative activity against human MOLT-4 cells assessed as inhibition of cell growth measured after 72 hrs by CCK8 assay; assay type: functional, cell-based; conditions: MOLT-4, 72 h
MV4-11 = assay: Antiproliferative activity against human MV4-11 cells assessed as inhibition of cell growth measured after 72 hrs by CCK8 assay; assay type: functional, cell-based; conditions: MV4-11, 72 h
OCI-Ly3 = assay: Antiproliferative activity against human OCILY3 cells assessed as inhibition of cell growth measured after 72 hrs by CCK8 assay; assay type: functional, cell-based; conditions: OCI-Ly3, 72 h
HCT-116 = assay: Antiproliferative activity against human HCT-116 cells assessed as inhibition of cell growth measured after 72 hrs by CCK8 assay; assay type: functional, cell-based; conditions: HCT-116, 72 h
NCI-H716 = assay: Antiproliferative activity against human NCI-H716 cells assessed as inhibition of cell growth measured after 72 hrs by CCK8 assay; assay type: functional, cell-based; conditions: NCI-H716, 72 h
NCI-H1975 = assay: Antiproliferative activity against human NCI-H1975 cells assessed as inhibition of cell growth measured after 72 hrs by CCK8 assay; assay type: functional, cell-based; conditions: NCI-H1975, 72 h
NCI-H1299 = assay: Antiproliferative activity against human NCI-H1299 cells assessed as inhibition of cell growth measured after 72 hrs by CCK8 assay; assay type: functional, cell-based; conditions: NCI-H1299, 72 h
4T1 = assay: Antiproliferative activity against mouse 4T1 cells assessed as inhibition of cell growth measured after 72 hrs by CCK8 assay; assay type: functional, cell-based; conditions: 4T1, 72 h
Huh-7 = assay: Antiproliferative activity against human Huh-7 cells assessed as inhibition of cell growth measured after 72 hrs by CCK8 assay; assay type: functional, cell-based; conditions: Huh-7, 72 h
[2] = Cytotoxicity against human HL7702 cells assessed as inhibition of cell growth measured after 72 hrs by CCK8 assay; assay type: toxicity, cell-based; conditions: HL7702 (L02) cells
A204 = assay: Antiproliferative activity against human A204 cells assessed as inhibition of cell growth measured after 72 hrs by CCK8 assay; assay type: functional, cell-based; conditions: A204, 72 h
MDA-MB-453 = assay: Antiproliferative activity against human MDA-MB-453 cells assessed as inhibition of cell growth measured after 72 hrs by CCK8 assay; assay type: functional, cell-based; conditions: MDA-MB-453, 72 h
K562 [3] = assay: Downregulation of Bcr-Abl expression in human K562 cells incubated for 24 hrs by Western blotting analysis; assay type: functional, cell-based; conditions: dose 11.1-900 nM
K562 [4] = assay: Downregulation of Myc expression in human K562 cells incubated for 24 hrs by Western blotting analysis; assay type: functional, cell-based; conditions: dose 11.1-900 nM
K562 [5] = assay: Downregulation of Mcl-1 expression in human K562 cells incubated for 24 hrs by Western blotting analysis; assay type: functional, cell-based; conditions: dose 11.1-900 nM
K562 [6] = assay: Downregulation of HSP90 expression in human K562 cells at 11.1 to 900 nM incubated for 24 hrs by Western blotting analysis; assay type: functional, cell-based; conditions: dose 11.1-900 nM
K562 [7] = assay: Downregulation of p38 expression in human K562 cells at 11.1 to 900 nM incubated for 24 hrs by Western blotting analysis; assay type: functional, cell-based; conditions: dose 11.1-900 nM

IC50 (K562 [1])	IC50 (HL-60)	IC50 (U-937)	SMILES	other results
0.344 µM	0.396 µM	0.441 µM	COC(=O)C[C@H](Cc1ccc2ccccc2c1)C(=O)O[C@@H]1C(OC)=C[C@]23CCCN2CCc2cc4c(cc2[C@H]13)OCO4	
0.096 µM	0.153 µM	0.15 µM	COC(=O)C[C@H](Cc1ccc(O)cc1)C(=O)O[C@@H]1C(OC)=C[C@]23CCCN2CCc2cc4c(cc2[C@H]13)OCO4	
0.121 µM	0.142 µM	0.204 µM	COC(=O)C[C@H](Cc1ccc(OC(C)=O)cc1)C(=O)O[C@@H]1C(OC)=C[C@]23CCCN2CCc2cc4c(cc2[C@H]13)OCO4	
0.096 µM	0.155 µM	0.17 µM	COC(=O)C[C@H](Cc1ccccc1)C(=O)O[C@@H]1C(OC)=C[C@]23CCCN2CCc2cc4c(cc2[C@H]13)OCO4	
0.123 µM	0.122 µM	0.174 µM	COC(=O)C[C@H](Cc1cccc(F)c1)C(=O)O[C@@H]1C(OC)=C[C@]23CCCN2CCc2cc4c(cc2[C@H]13)OCO4	
0.553 µM	0.701 µM	0.929 µM	COC(=O)C[C@H](Cc1ccc(Br)cc1)C(=O)O[C@@H]1C(OC)=C[C@]23CCCN2CCc2cc4c(cc2[C@H]13)OCO4	
0.103 µM	0.151 µM	0.174 µM	COC(=O)C[C@H](Cc1ccc(OCc2ccccc2)cc1)C(=O)O[C@@H]1C(OC)=C[C@]23CCCN2CCc2cc4c(cc2[C@H]13)OCO4	
0.207 µM	0.266 µM	0.288 µM	COC(=O)C[C@H](Cc1ccc(F)cc1)C(=O)O[C@@H]1C(OC)=C[C@]23CCCN2CCc2cc4c(cc2[C@H]13)OCO4	
0.112 µM	0.13 µM	0.121 µM	COC(=O)C[C@H](Cc1ccc(N)cc1)C(=O)O[C@@H]1C(OC)=C[C@]23CCCN2CCc2cc4c(cc2[C@H]13)OCO4	IC50 (BaF3): 0.246 µM; IC50 (MOLT-4): 0.06 µM; IC50 (MV4-11): 0.098 µM; IC50 (OCI-Ly3): 0.058 µM; IC50 (HCT-116): 0.107 µM; IC50 (NCI-H716): 0.107 µM; IC50 (NCI-H1975): 11.9 µM; IC50 (NCI-H1299): 0.173 µM; IC50 (4T1): 0.296 µM; IC50 (Huh-7): 0.216 µM; IC50 at 72 h [2]: 0.494 µM; IC50 (A204): 0.038 µM; IC50 (MDA-MB-453): 0.07 µM; Activity (K562 [3]): Dose-Dependent Effect; Activity (K562 [4]): Dose-Dependent Effect; Activity (K562 [5]): Dose-Dependent Effect; Activity (K562 [6]): inactive; Activity (K562 [7]): inactive
0.681 µM	0.718 µM	0.807 µM	COC(=O)C[C@H](Cc1ccccc1O)C(=O)O[C@@H]1C(OC)=C[C@]23CCCN2CCc2cc4c(cc2[C@H]13)OCO4	
0.404 µM	0.548 µM	0.725 µM	COC(=O)C[C@@H](Cc1ccccc1)C(=O)O[C@@H]1C(OC)=C[C@]23CCCN2CCc2cc4c(cc2[C@H]13)OCO4	
0.373 µM	0.597 µM	0.673 µM	COC(=O)C[C@@H](Cc1ccc(F)cc1)C(=O)O[C@@H]1C(OC)=C[C@]23CCCN2CCc2cc4c(cc2[C@H]13)OCO4	
0.139 µM	0.184 µM	0.176 µM	COC(=O)C[C@H](Cc1cccc(O)c1)C(=O)O[C@@H]1C(OC)=C[C@]23CCCN2CCc2cc4c(cc2[C@H]13)OCO4	
0.572 µM	0.576 µM	0.834 µM	CCOC(=O)C[C@H](Cc1ccc(O)cc1)C(=O)O[C@@H]1C(OC)=C[C@]23CCCN2CCc2cc4c(cc2[C@H]13)OCO4	
0.149 µM	0.155 µM	0.13 µM	COC(=O)C[C@H](Cc1ccc(NC(=O)OC(C)(C)C)cc1)C(=O)O[C@@H]1C(OC)=C[C@]23CCCN2CCc2cc4c(cc2[C@H]13)OCO4	
0.121 µM	0.145 µM	0.213 µM	COC(=O)C[C@H](Cc1cccc(N)c1)C(=O)O[C@@H]1C(OC)=C[C@]23CCCN2CCc2cc4c(cc2[C@H]13)OCO4	
0.203 µM	0.235 µM	0.214 µM	COC(=O)C[C@H](Cc1cccc(Br)c1)C(=O)O[C@@H]1C(OC)=C[C@]23CCCN2CCc2cc4c(cc2[C@H]13)OCO4	

The remaining lines, values behind:

SMILES	IC50 (K562 [1])	IC50 (HL-60)	IC50 (U-937)	other results
COC(=O)C[C@H](Cc1cccc(NC(=O)OC(C)(C)C)c1)C(=O)O[C@@H]1C(OC)=C[C@]23CCCN2CCc2cc4c(cc2[C@H]13)OCO4	0.163 µM	0.199 µM	0.257 µM	
COC(=O)C[C@H](Cc1cccc(OCc2ccccc2)c1)C(=O)O[C@@H]1C(OC)=C[C@]23CCCN2CCc2cc4c(cc2[C@H]13)OCO4	0.152 µM	0.202 µM	0.248 µM	
COC(=O)C[C@H](CCC(C)(C)C)C(=O)O[C@@H]1C(OC)=C[C@]23CCCN2CCc2cc4c(cc2[C@H]13)OCO4	0.368 µM	0.907 µM	1.22 µM	
COC(=O)C[C@](O)(CCCC(C)(C)O)C(=O)O[C@@H]1C(OC)=C[C@]23CCCN2CCc2cc4c(cc2[C@H]13)OCO4 [OMACETAXINE MEPESUCCINATE]	0.014 µM	0.013 µM	0.012 µM	IC50 (BaF3): 0.081 µM; IC50 (MOLT-4): 0.007 µM; IC50 (MV4-11): 0.005 µM; IC50 (OCI-Ly3): 0.005 µM; IC50 (HCT-116): 0.013 µM; IC50 (NCI-H716): 0.065 µM; IC50 (NCI-H1975): 0.022 µM; IC50 (NCI-H1299): 0.022 µM; IC50 (4T1): 0.06 µM; IC50 (Huh-7): 0.04 µM; IC50 at 72 h [2]: 0.064 µM; IC50 (A204): 0.004 µM; IC50 (MDA-MB-453): 0.021 µM
COC(=O)C[C@@H](Cc1cccs1)C(=O)O[C@@H]1C(OC)=C[C@]23CCCN2CCc2cc4c(cc2[C@H]13)OCO4	0.186 µM	0.246 µM	0.277 µM	
COC(=O)C[C@H](Cc1ccccc1OCc1ccccc1)C(=O)O[C@@H]1C(OC)=C[C@]23CCCN2CCc2cc4c(cc2[C@H]13)OCO4	0.482 µM	0.569 µM	0.725 µM	
COC(=O)C[C@H](C)C(=O)O[C@@H]1C(OC)=C[C@]23CCCN2CCc2cc4c(cc2[C@H]13)OCO4	14.5 µM	18 µM	13.8 µM	
Cc1ccc(NC(=O)c2ccc(CN3CCN(C)CC3)cc2)cc1Nc1nccc(-c2cccnc2)n1 [IMATINIB]	0.135 µM	28.5 µM	16.6 µM	
COC(=O)C[C@H](Cc1ccccc1Br)C(=O)O[C@@H]1C(OC)=C[C@]23CCCN2CCc2cc4c(cc2[C@H]13)OCO4	0.464 µM	0.535 µM	0.7 µM	
COC1=C[C@]23CCCN2CCc2cc4c(cc2[C@@H]3[C@@H]1O)OCO4 [CEPHALOTAXINE]	> 30 µM	> 30 µM	> 30 µM	
CCOC(=O)C[C@H](Cc1ccc(OCc2ccccc2)cc1)C(=O)O[C@@H]1C(OC)=C[C@]23CCCN2CCc2cc4c(cc2[C@H]13)OCO4	0.693 µM	0.89 µM	1.05 µM	
Cc1nc(Nc2ncc(C(=O)Nc3c(C)cccc3Cl)s2)cc(N2CCN(CCO)CC2)n1 [DASATINIB]	0.001 µM	15 µM	15 µM	
